# Measurements from ChEMBL document CHEMBL1201862, “PubChem BioAssay data set” (2004).
#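 Assay format: 96-well plates, 48-hour exposure. GI50: concentration for 50% inhibition of growth.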 Activity calls are given as the source filed them. No stated cut-off is given here; in the data, active = GI50 up to about 1.1 µM and inactive = higher.
# What was measured:
# Assay in all cases: NCI anticancer screen, dose series, 48 h
# MDA-N = tested on: MDA-N
# SNB-75 = tested on: SNB-75
# UACC-257 = tested on: UACC-257
# SK-MEL-5 = tested on: SK-MEL-5
# NCI-H226 = tested on: NCI-H226
# MOLT-4 = tested on: MOLT-4
# K562 = tested on: K562
# OVCAR-3 = tested on: OVCAR-3
# NCI/ADR-RES = tested on: NCI/ADR-RES
# SK-MEL-28 = tested on: SK-MEL-28
# NCI-H460 = tested on: NCI-H460
# ACHN = tested on: ACHN
# NCI-H522 = tested on: NCI-H522
# SK-OV-3 = tested on: SK-OV-3
# SW-620 = tested on: SW-620
# A549 = tested on: A549
# OVCAR-5 = tested on: OVCAR-5
# SF-295 = tested on: SF-295
# Malme-3M = tested on: Malme-3M
# KM12 = tested on: KM12
Compound,GI50 (MDA-N),GI50 (SNB-75),GI50 (UACC-257),GI50 (SK-MEL-5),GI50 (NCI-H226),GI50 (MOLT-4),GI50 (K562),GI50 (OVCAR-3),GI50 (NCI/ADR-RES),GI50 (SK-MEL-28),GI50 (NCI-H460),GI50 (ACHN),GI50 (NCI-H522),GI50 (SK-OV-3),GI50 (SW-620),GI50 (A549),GI50 (OVCAR-5),GI50 (SF-295),GI50 (Malme-3M),GI50 (KM12)
O=C1C(CO)=C(CO)C(=O)c2c(O)ccc(O)c21,0.236 µM (active),0.388 µM (active),0.349 µM (active),0.394 µM (active),2.15 µM (inactive),0.0497 µM (active),0.0877 µM (active),0.655 µM (active),1.04 µM (active),0.391 µM (active),0.923 µM (active),0.337 µM (active),0.0897 µM (active),7.23 µM (inactive),0.082 µM (active),1.64 µM (inactive),2.08 µM (inactive),1.69 µM (inactive),0.217 µM (active),1.61 µM (inactive)
NC(=O)C(=CNC(N)=S)C(N)=O,> 100 µM (inactive),> 100 µM (inactive),> 100 µM (inactive),> 100 µM (inactive),> 100 µM (inactive),> 100 µM (inactive),> 100 µM (inactive),> 100 µM (inactive),> 100 µM (inactive),> 100 µM (inactive),> 100 µM (inactive),> 100 µM (inactive),> 100 µM (inactive),> 100 µM (inactive),> 100 µM (inactive),> 100 µM (inactive),> 100 µM (inactive),> 100 µM (inactive),> 100 µM (inactive),> 100 µM (inactive)
COC(=O)c1c(C)[nH]c2c1C(=O)C(=O)c1nc(C)c(C)nc1-2,5.37 µM (inactive),1.21 µM (inactive),11 µM (inactive),5.77 µM (inactive),11.8 µM (inactive),7.66 µM (inactive),9.38 µM (inactive),9.79 µM (inactive),12.7 µM (inactive),11.1 µM (inactive),5.27 µM (inactive),2.85 µM (inactive),3.48 µM (inactive),3.5 µM (inactive),10.8 µM (inactive),7.52 µM (inactive),11.7 µM (inactive),4.54 µM (inactive),3.58 µM (inactive),10.8 µM (inactive)
C=C1C(=O)O[C@H]2C[C@@]3(C)[C@H](O)CCC(=C)[C@@H]3[C@@H](OC(C)=O)[C@H]12,4.31 µM (inactive),13.1 µM (inactive),15.4 µM (inactive),12.1 µM (inactive),15.2 µM (inactive),3.13 µM (inactive),2.63 µM (inactive),12.3 µM (inactive),21.8 µM (inactive),20 µM (inactive),13.1 µM (inactive),3.53 µM (inactive),1.73 µM (inactive),30.2 µM (inactive),4.85 µM (inactive),14.7 µM (inactive),3.27 µM (inactive),18.9 µM (inactive),1.45 µM (inactive),16.4 µM (inactive)
C/C(=N\NC(=S)N1CCCC1)c1nc2cccnc2[nH]1,0.979 µM (active),3.85 µM (inactive),0.289 µM (active),0.217 µM (active),0.277 µM (active),0.171 µM (active),0.349 µM (active),0.35 µM (active),0.335 µM (active),0.349 µM (active),0.0612 µM (active),0.0897 µM (active),11.1 µM (inactive),0.442 µM (active),1.22 µM (inactive),0.223 µM (active),0.457 µM (active),0.254 µM (active),0.583 µM (active),0.321 µM (active)
CC1=NN(C(=O)CC(=O)Nc2ccccc2C)C(=O)C1/N=N\c1ccc(S(=O)(=O)c2ccc(/N=N/C3C(=O)N(C(=O)CC(=O)Nc4ccccc4C)N=C3C)cc2)cc1 (stereo not given),> 100 µM (inactive),> 100 µM (inactive),> 100 µM (inactive),62.2 µM (inactive),> 100 µM (inactive),> 100 µM (inactive),> 100 µM (inactive),> 100 µM (inactive),> 100 µM (inactive),> 100 µM (inactive),> 100 µM (inactive),> 100 µM (inactive),46 µM (inactive),> 100 µM (inactive),> 10 µM (inactive),> 100 µM (inactive),> 100 µM (inactive),> 100 µM (inactive),> 100 µM (inactive),> 100 µM (inactive)
O=c1oc2ccccc2cc1-c1csc(Nc2cc(Cl)cc(Cl)c2)n1,29.2 µM (inactive),2.71 µM (inactive),> 100 µM (inactive),> 56.1 µM (inactive),> 35.8 µM (inactive),> 43 µM (inactive),> 100 µM (inactive),11.5 µM (inactive),6.59 µM (inactive),9.51 µM (inactive),6.64 µM (inactive),1.9 µM (inactive),20.9 µM (inactive),> 34.6 µM (inactive),11.9 µM (inactive),4.51 µM (inactive),> 100 µM (inactive),6.35 µM (inactive),11.7 µM (inactive),> 27.5 µM (inactive)
O=C1OC2C=CCC1C2 (stereo not given),> 100 µM (inactive),> 100 µM (inactive),> 100 µM (inactive),> 100 µM (inactive),> 100 µM (inactive),> 100 µM (inactive),> 100 µM (inactive),> 100 µM (inactive),> 100 µM (inactive),> 100 µM (inactive),> 100 µM (inactive),> 100 µM (inactive),> 100 µM (inactive),> 100 µM (inactive),> 100 µM (inactive),> 100 µM (inactive),> 100 µM (inactive),> 100 µM (inactive),> 100 µM (inactive),> 100 µM (inactive)
CN(C)CCCN1CCC2(CCC(C(C)(C)C)CC2)CC1,0.912 µM (active),2.08 µM (inactive),1.41 µM (inactive),1.61 µM (inactive),6.82 µM (inactive),1.77 µM (inactive),0.266 µM (active),3.1 µM (inactive),5.08 µM (inactive),1.77 µM (inactive),0.8 µM (active),7.05 µM (inactive),2.49 µM (inactive),9.29 µM (inactive),2.4 µM (inactive),3.27 µM (inactive),3.08 µM (inactive),2.03 µM (inactive),1.89 µM (inactive),2.38 µM (inactive)
COC(=O)C1Cc2ccc3c(c2C1=O)CCCC3 (stereo not given),> 100 µM (inactive),89.7 µM (inactive),> 100 µM (inactive),68.2 µM (inactive),92.9 µM (inactive),21.3 µM (inactive),22.2 µM (inactive),80.7 µM (inactive),> 100 µM (inactive),> 100 µM (inactive),> 100 µM (inactive),> 100 µM (inactive),> 100 µM (inactive),> 100 µM (inactive),86.5 µM (inactive),> 100 µM (inactive),> 100 µM (inactive),71.4 µM (inactive),> 100 µM (inactive),> 100 µM (inactive)
CCOC1NC(=O)Oc2cc3ccccc3cc21 (stereo not given),> 100 µM (inactive),60.5 µM (inactive),> 100 µM (inactive),> 100 µM (inactive),> 100 µM (inactive),34.8 µM (inactive),40.6 µM (inactive),30.2 µM (inactive),99.5 µM (inactive),> 100 µM (inactive),> 100 µM (inactive),> 100 µM (inactive),> 100 µM (inactive),> 100 µM (inactive),> 100 µM (inactive),> 100 µM (inactive),> 100 µM (inactive),> 100 µM (inactive),> 100 µM (inactive),> 100 µM (inactive)
O=C1CSC(c2cccc(Oc3ccccc3)c2)N1c1cc(Cl)ccc1Cl (stereo not given),17.6 µM (inactive),26.4 µM (inactive),22.7 µM (inactive),16.5 µM (inactive),23.4 µM (inactive),22.6 µM (inactive),19.4 µM (inactive),22.1 µM (inactive),29.2 µM (inactive),29.5 µM (inactive),20.1 µM (inactive),24 µM (inactive),20.9 µM (inactive),39.8 µM (inactive),22.3 µM (inactive),48 µM (inactive),27.7 µM (inactive),23 µM (inactive),27.5 µM (inactive),26.4 µM (inactive)
